Reference: patent US9150840B2, “Isolated bacterial strain of Achromobacter sp. MTCC 5605 and a highly enantioselective epoxide hydrolase isolated therefrom” (COUNCIL OF SCIENTIFIC & INDUSTRIAL RESEARCH, priority 2011, dated 2015)

System: Achromobacter sp. MTCC 5605
Test: Antibiotic sensitivity of the isolated strain
Assay type: cell-based
Details: not given

With `C[C@@H]1[C@H](O)[C@@H](C)/C=C/C=C/C=C/C=C/C=C/C=C/C=C/[C@H](O[C@@H]2O[C@H](C)[C@@H](O)[C@H](N)[C@@H]2O)C[C@@H]2O[C@](O)(C[C@@H](O)C[C@@H](O)[C@H](O)CC[C@@H](O)C[C@@H](O)CC(=O)O[C@H]1C)C[C@H](O)[C@H]2C(=O)O` [Amphotericin B] as the compound, how does the Antibiotic sensitivity read?
Its Antibiotic sensitivity is “Resistant to Penicillin-G (10 units), Methicillin (5 mcg),”.

Which Antibiotic sensitivity does the source give for `O=C(N[C@H](CO)[C@H](O)c1ccc([N+](=O)[O-])cc1)C(Cl)Cl` [Chloramphenicol] here?
Its Antibiotic sensitivity is “Sensitive to Erythromycin (10 mcg), Gentamycin (10 mcg),”.

With `O=C(O)c1cn(C2CC2)c2cc(N3CCNCC3)c(F)cc2c1=O` [Ciprofloxacin] as the compound, how does the Antibiotic sensitivity read?
Its Antibiotic sensitivity is “Sensitive to Erythromycin (10 mcg), Gentamycin (10 mcg),”.

`CC[C@H]1OC(=O)[C@H](C)[C@@H](O[C@H]2C[C@@](C)(OC)[C@@H](O)[C@H](C)O2)[C@H](C)[C@@H](O[C@@H]2O[C@H](C)C[C@H](N(C)C)[C@H]2O)[C@](C)(O)C[C@@H](C)C(=O)[C@H](C)[C@@H](O)[C@]1(C)O` [Erythromycin] was tested. Which Antibiotic sensitivity did it give?
Its Antibiotic sensitivity is “Sensitive to Erythromycin (10 mcg), Gentamycin (10 mcg),”.

For `COc1cccc(OC)c1C(=O)N[C@@H]1C(=O)N2[C@@H]1SC(C)(C)[C@@H]2C(=O)O` [Methicillin], which Antibiotic sensitivity is on record?
Its Antibiotic sensitivity is “Resistant to Penicillin-G (10 units), Methicillin (5 mcg),”.

Which Antibiotic sensitivity does the source give for `C[C@@H]1[C@H](O)[C@@H](C)/C=C/C=C/CC/C=C/C=C/C=C/C=C/C(O[C@H]2O[C@H](C)[C@@H](O)[C@H](N)[C@@H]2O)CC2O[C@](O)(CC(O)C(O)CCC(O)CC(O)CC(O)CC(=O)O[C@H]1C)CC(O)C2C(=O)O` (stereo partly drawn) [Nystatin] here?
Its Antibiotic sensitivity is “Resistant to Penicillin-G (10 units), Methicillin (5 mcg),”.

Which Antibiotic sensitivity does the source give for `CC1(C)S[C@@H]2[C@H](NC(=O)Cc3ccccc3)C(=O)N2[C@H]1C(=O)O` [Penicillin-G] here?
The Antibiotic sensitivity was “Resistant to Penicillin-G (10 units), Methicillin (5 mcg),”.

Same assay, conditions: amount per antibiotic as printed (5-30 mcg, 10 units)

Gentamycin was tested. Which Antibiotic sensitivity did it give?
The Antibiotic sensitivity was “Sensitive to Erythromycin (10 mcg), Gentamycin (10 mcg),”.

System: epoxide hydrolase from Achromobacter sp. MTCC 5605
Test: not given
Assay type: biochemical
Details: pH 8

With `O[C@H](CS)[C@H](O)CS` (racemic) [dithiothreitol] as the compound, how does the “Inhibition of epoxide hydrolase activity” value read?
The value was “none of them showed any inhibition”.

How did the “Inhibition of epoxide hydrolase activity” value turn out when `CCCCCCCCCCCCCCCC[N+](C)(C)C.[Br-]` [cetyltrimethylammonium bromide] was run?
Its value is “none of them showed any inhibition”.

With `CCOC(=O)OC(=O)OCC` [diethyl pyrocarbonate] as the compound, how does the “Inhibition of epoxide hydrolase activity” value read?
The value was “none of them showed any inhibition”.

With `O=C(O)CN(CCN(CC(=O)O)CC(=O)O)CC(=O)O` [ethylenediaminetetraacetic acid] as the compound, how does the “Inhibition of epoxide hydrolase activity” value read?
The value was “none of them showed any inhibition”.

For `NO` [hydroxylamine], which “Inhibition of epoxide hydrolase activity” value is on record?
The value was “none of them showed any inhibition”.

`NNc1ccccc1` [phenyl hydrazine] was tested. Which “Inhibition of epoxide hydrolase activity” value did it give?
Its value is “none of them showed any inhibition”.

`CCCCCCCCCCCCOS(=O)(=O)[O-].[Na+]` [sodium dodecyl sulphate] was tested. Which “Inhibition of epoxide hydrolase activity” value did it give?
Its value is “none of them showed any inhibition”.
